Measured values as given in US20170334877A1, “REVAPRAZAN HYDROCHLORIDE POLYMORPHS AND PREPARATION METHOD THEREFOR” (JIANGSU TASLY DIYI PHARMACEUTICAL CO., LTD., priority 2014, published 2017).
Where a name gives a salt, the structure may show the parent alone.

Columns and labels:
Type in all cases: physicochemical
[1] = Light illumination test (intense light, 4500±500 Lx); settings: for Stability (conclusion in words): intense light illumination, no obvious changes in appearance color, loss on drying, purity, relevant substances; for Appearance color / Loss on drying (%) / Purity (%) / Relevant substances: light 4500±500 Lx; for Loss on drying (%) / Purity (%) / Relevant substances: hydrochloride
From the text: Revaprazan hydrochloride crystalline form I is irradiated under such a condition that the light intensity is 4500±500 Lx, and is sampled on the 5th day and 10th day for detection, and the results are shown in Table 1. Revaprazan hydrochloride crystalline form II is irradiated under the condition that the light intensity is 4500±500Lx, and is sampled on the 5th day and 10th day for detection. Revaprazan hydrochloride polymorph III is irradiated under such a condition that the light intensity is 4500±500Lx, and is sampled on the 5th day and 10th day for detection. Revaprazan hydrochloride […] is irradiated under such a condition that the light intensity is 4500±500Lx, and is sampled on the 5th day and the 10th day for detection. Revaprazan hydrochloride crystalline form V is irradiated under the light intensity condition of 4500±500Lx; and is sampled on the 5th day and 10th day for detection.

[2] = High temperature test (60° C. incubator); settings: for Appearance color / Loss on drying (%) / Purity (%) / Relevant substances: 60° C., hydrochloride; for Stability (conclusion in words): high temperature, no obvious changes in appearance color, loss on drying, purity, relevant substances
Protocol: Revaprazan hydrochloride crystalline form I is placed in a 60° C. incubator, and is sampled on the 5th day and 10th day for detection, and the results are shown in Table 2. Revaprazan hydrochloride crystalline form II is placed in a 60° C. incubator, and is sampled on the 5th day and 10th day for detection, and the results are shown in Table 6. Revaprazan hydrochloride polymorph III is placed in an incubator of 60° C., and is sampled on the 5th day and the 10th day for detection. Revaprazan hydrochloride crystalline form IV is placed in an incubator of 60° C., and is sampled on the 5th day and the 10th day for detection. Revaprazan hydrochloride crystal form 4 is placed in an incubator of 60° C.; and is sampled on the 5th day and the 10th day for detection, and the results are shown in Table 23.

[3] = High humidity test (25° C., relative humidity 75±5%); settings: for Appearance color / Purity (%) / Weight gain upon moisture absorption (%) / Relevant substances: 25° C., RH 75±5%; for Weight gain upon moisture absorption (in words): high humidity condition; for Stability (conclusion in words): high humidity, no obvious changes in appearance color, purity, relevant substances
Protocol: Revaprazan hydrochloride crystalline form I is placed in an incubator of 25° C. (relative humidity of 75±5%), and is sampled on the 5th day and 10th day for detection. Revaprazan hydrochloride crystalline form II is placed in an incubator of 25° C. (relative humidity of 75±5%), and is sampled on the 5th day and 10th day for detection. Revaprazan hydrochloride polymorph III is placed in an incubator of 25° C. (relative humidity of 75±5%), and is sampled on the 5th day and the 10th day for detection. Revaprazan hydrochloride crystalline form IV is placed in an incubator of 25° C. Revaprazan hydrochloride crystal form 4 is placed in an incubator of 25° C. (the relative humidity is 75±5%), and is sampled on the 5th day and the 10th day for detection.

[4] = Accelerated test (40±2° C., relative humidity 75±5%, 6 months, sealed polyethylene film bag); settings: for Appearance color / Purity (%) / Relevant substances: 40±2° C., RH 75±5%; for Purity (%) / Relevant substances: hydrochloride; for Stability (conclusion in words): accelerated test, no obvious changes in appearance color, purity, relevant substances
Protocol: Revaprazan hydrochloride crystalline form I is sealed in a polyethylene film bag, is placed for 6 months under the conditions that the temperature is 40±2° C. and the relative humidity is 75±5%, and is respectively sampled at the end of the 1st Month, the 2nd Month, the 3rd Month and the 6^thMonth for detection; and the results are shown in Table 4. Revaprazan hydrochloride crystalline form II is sealed in a polyethylene film bag and is placed for 6 months under the conditions that the temperature is 40±2° C. and the relative humidity is 75±5%, and is respectively sampled at the end of the 1st Month, the 2nd Month, the 3rd Month and the 6th Month for detection; and the results are shown in Table 8. Revaprazan hydrochloride crystalline form III is sealed in a polyethylene film bag, is placed for 6 months under the conditions that the temperature is 40±2° C. and the relative humidity is 75±5%, and is sampled at the end of the 1st Month, the 2nd Month, the 3rd Month and the 6th Month for detection. Revaprazan hydrochloride crystalline form IV is sealed in a polyethylene film bag, is placed for 6 months under the conditions that the temperature is 40±2° C. and the relative humidity is 75±5%, and is sampled at the end of the 1st Month, the 2nd Month, the 3rd Month and the 6th Month for detection. Revaprazan hydrochloride crystalline form V is sealed in a polyethylene film bag and is placed for 6 months under the condition that the temperature is 40±2° C. and the relative humidity is 75±5%, and is sampled at the end of the 1st month, the 2nd month, the 3rd month and the 6th month for detection, and the results are shown in Table 20.

Cc1nc(Nc2ccc(F)cc2)nc(N2CCc3ccccc3C2C)c1C (single isomer, unassigned) [revaprazan hydrochloride crystalline form IV]
Stability (conclusion in words) [1]: stable | Appearance color ([1]; 5th day): White powder | Loss on drying (%) ([1]; 5th day): 0.29% | Purity (%) ([1]; 5th day): 99.95% | Relevant substances ([1]; 5th day): Undetected | Appearance color ([1]; 10th day): White powder | Loss on drying (%) ([1]; 10th day): 0.31% | Purity (%) ([1]; 10th day): 99.92% | Relevant substances ([1]; 10th day): Undetected | Appearance color ([1]; Day 0): White powder | Loss on drying (%) ([1]; Day 0): 0.27% | Purity (%) ([1]; Day 0): 99.93% | Relevant substances ([1]; Day 0): Undetected | Appearance color ([2]; 5th day): White powder | Loss on drying (%) ([2]; 5th day): 0.27% | Purity (%) ([2]; 5th day): 99.91% | Relevant substances ([2]; 5th day): Undetected | Appearance color ([2]; 10th day): White powder | Loss on drying (%) ([2]; 10th day): 0.27% | Purity (%) ([2]; 10th day): 99.92% | Relevant substances ([2]; 10th day): Undetected | Appearance color ([2]; Day 0): White powder | Loss on drying (%) ([2]; Day 0): 0.25% | Purity (%) ([2]; Day 0): 99.93% | Relevant substances ([2]; Day 0): Undetected | Stability (conclusion in words) [2]: stable | Appearance color ([3]; 5th day): White powder | Purity (%) ([3]; 5th day, hydrochloride): 99.96% | Weight gain upon moisture absorption (%) ([3]; 5th day, hydrochloride): 0.44% | Appearance color ([3]; 10th day): White powder | Purity (%) ([3]; 10th day, hydrochloride): 99.93% | Weight gain upon moisture absorption (%) ([3]; 10th day, hydrochloride): 0.62% | Appearance color ([3]; Day 0): White powder | Weight gain upon moisture absorption (%) ([3]; Day 0): 0% | Purity (%) ([3]; Day 0, hydrochloride): 99.93% | Weight gain upon moisture absorption (in words) [3]: slight weight gain | Stability (conclusion in words) [3]: stable | Appearance color ([4]; 1st month): White powder | Purity (%) ([4]; 1st month): 99.91% | Relevant substances ([4]; 1st month): Undetected | Appearance color ([4]; 2nd month): White powder | Purity (%) ([4]; 2nd month): 99.90% | Relevant substances ([4]; 2nd month): Undetected | Appearance color ([4]; 3rd month): White powder | Purity (%) ([4]; 3rd month): 99.95% | Relevant substances ([4]; 3rd month): Undetected | Appearance color ([4]; 6th month): White powder | Purity (%) ([4]; 6th month): 99.94% | Relevant substances ([4]; 6th month): Undetected | Appearance color ([4]; Month 0): White powder | Purity (%) ([4]; Month 0): 99.93% | Relevant substances ([4]; Month 0): Undetected | Stability (conclusion in words) [4]: stable

Cc1nc(Nc2ccc(F)cc2)nc(N2CCc3ccccc3C2C)c1C (single isomer, unassigned) [revaprazan hydrochloride crystalline form I]
Stability (conclusion in words) [1]: stable | Appearance color ([1]; 5th day): White powder | Loss on drying (%) ([1]; 5th day): 0.28% | Purity (%) ([1]; 5th day): 99.92% | Relevant substances ([1]; 5th day): Not detected | Appearance color ([1]; 10th day): White powder | Loss on drying (%) ([1]; 10th day): 0.30% | Purity (%) ([1]; 10th day): 99.94% | Relevant substances ([1]; 10th day): Not detected | Appearance color ([1]; Day 0): White powder | Loss on drying (%) ([1]; Day 0): 0.27% | Purity (%) ([1]; Day 0): 99.96% | Relevant substances ([1]; Day 0): Not detected | Appearance color ([2]; 5th day): White powder | Loss on drying (%) ([2]; 5th day): 0.23% | Purity (%) ([2]; 5th day): 99.95% | Relevant substances ([2]; 5th day): Not detected | Appearance color ([2]; 10th day): White powder | Loss on drying (%) ([2]; 10th day): 0.24% | Purity (%) ([2]; 10th day): 99.98% | Relevant substances ([2]; 10th day): Not detected | Appearance color ([2]; Day 0): White powder | Loss on drying (%) ([2]; Day 0): 0.21% | Purity (%) ([2]; Day 0): 99.96% | Relevant substances ([2]; Day 0): Not detected | Stability (conclusion in words) [2]: stable | Appearance color ([3]; 5th day): White powder | Purity (%) ([3]; 5th day, hydrochloride): 99.93% | Relevant substances ([3]; 5th day, hydrochloride): Not detected | Weight gain upon moisture absorption (%) ([3]; 5th day, hydrochloride): 0.42% | Appearance color ([3]; 10th day): White powder | Purity (%) ([3]; 10th day, hydrochloride): 99.95% | Relevant substances ([3]; 10th day, hydrochloride): Not detected | Weight gain upon moisture absorption (%) ([3]; 10th day, hydrochloride): 0.63% | Appearance color ([3]; Day 0): White powder | Weight gain upon moisture absorption (%) ([3]; Day 0): 0% | Purity (%) ([3]; Day 0, hydrochloride): 99.96% | Relevant substances ([3]; Day 0, hydrochloride): Not detected | Weight gain upon moisture absorption (in words) [3]: slight weight gain | Stability (conclusion in words) [3]: stable | Appearance color ([4]; 1st month): White powder | Purity (%) ([4]; 1st month): 99.97% | Relevant substances ([4]; 1st month): Not detected | Appearance color ([4]; 2nd month): White powder | Purity (%) ([4]; 2nd month): 99.92% | Relevant substances ([4]; 2nd month): Not detected | Appearance color ([4]; 3rd month): White powder | Purity (%) ([4]; 3rd month): 99.96% | Relevant substances ([4]; 3rd month): Not detected | Appearance color ([4]; 6th month): White powder | Purity (%) ([4]; 6th month): 99.95% | Relevant substances ([4]; 6th month): Not detected | Appearance color ([4]; Month 0): White powder | Purity (%) ([4]; Month 0): 99.96% | Relevant substances ([4]; Month 0): Not detected | Stability (conclusion in words) [4]: stable
